Earlier results in patent US10933021B2, “Compositions of gallium (III) complexes for oral administration” (Altum Pharmaceuticals Inc., priority 2017, dated 2021).

Columns and labels:
[1] = tested on: tumor cell lines resistant to gallium nitrate
[2] = pH values below the pKa of 8-hydroxyquinoline (5.01)
[3] = target: albumin (Homo sapiens, UniProt P02768); settings: human serum
[4] = pH 7.4, serum
[5] = tested on: apoptosis induction; settings: compared to simple gallium salts such as gallium nitrate
[6] = seven patients, oral enteric coated tablets of crystalline GaQ3, 10 mg, 20 mg, 30 mg strengths
[7] = target: transferrin (Tf) (Homo sapiens, UniProt P02787); settings: human serum
Sequence of transferrin (Tf) (P02787 20-698): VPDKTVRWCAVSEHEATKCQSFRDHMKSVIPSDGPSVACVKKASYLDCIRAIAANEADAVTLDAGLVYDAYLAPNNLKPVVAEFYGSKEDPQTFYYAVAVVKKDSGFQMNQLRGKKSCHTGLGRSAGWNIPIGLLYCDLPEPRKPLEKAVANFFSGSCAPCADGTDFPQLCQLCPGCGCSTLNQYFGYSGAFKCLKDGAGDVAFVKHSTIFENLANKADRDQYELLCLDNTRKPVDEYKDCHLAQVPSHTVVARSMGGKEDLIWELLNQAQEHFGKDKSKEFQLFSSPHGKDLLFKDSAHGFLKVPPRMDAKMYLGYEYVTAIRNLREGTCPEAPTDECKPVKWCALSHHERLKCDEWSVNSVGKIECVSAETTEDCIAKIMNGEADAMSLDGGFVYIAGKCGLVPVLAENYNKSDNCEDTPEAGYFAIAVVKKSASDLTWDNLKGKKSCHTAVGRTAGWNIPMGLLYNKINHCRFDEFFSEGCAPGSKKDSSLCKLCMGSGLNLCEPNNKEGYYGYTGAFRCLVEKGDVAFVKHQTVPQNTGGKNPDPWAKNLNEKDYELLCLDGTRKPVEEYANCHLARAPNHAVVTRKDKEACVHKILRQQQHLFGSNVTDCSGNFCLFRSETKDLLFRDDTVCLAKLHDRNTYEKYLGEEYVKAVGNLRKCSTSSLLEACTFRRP

Sequence of albumin (P02768 25-609): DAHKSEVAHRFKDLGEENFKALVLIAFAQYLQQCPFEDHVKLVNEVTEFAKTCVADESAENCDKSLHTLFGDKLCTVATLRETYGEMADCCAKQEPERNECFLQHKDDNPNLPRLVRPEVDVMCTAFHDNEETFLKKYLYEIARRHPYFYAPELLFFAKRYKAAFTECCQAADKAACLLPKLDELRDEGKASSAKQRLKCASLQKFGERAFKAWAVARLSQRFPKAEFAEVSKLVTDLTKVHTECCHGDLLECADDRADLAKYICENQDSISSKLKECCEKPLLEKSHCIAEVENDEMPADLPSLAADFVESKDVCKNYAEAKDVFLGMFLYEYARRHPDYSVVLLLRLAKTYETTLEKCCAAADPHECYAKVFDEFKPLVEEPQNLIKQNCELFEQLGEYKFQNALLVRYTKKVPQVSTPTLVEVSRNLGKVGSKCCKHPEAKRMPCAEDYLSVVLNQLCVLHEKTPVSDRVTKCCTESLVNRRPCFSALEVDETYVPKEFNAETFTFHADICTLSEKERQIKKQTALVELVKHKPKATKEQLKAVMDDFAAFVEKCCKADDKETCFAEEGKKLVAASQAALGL

In the case of [Ga+3].[O-]c1cccc2cccnc12.[O-]c1cccc2cccnc12.[O-]c1cccc2cccnc12 [GaQ3, tris (8-quinolinolato) gallium (III)], the “activity against tumor cell lines resistant to gallium nitrate” value [1] is listed as “active”, the “integrity of complexed structure” value [2] is listed as “disrupted completely” and the binding to albumin [3] is listed as “binds very weakly”. The stability in serum [4] was “very stable”, the “apoptosis induction relative to gallium nitrate” value [5] was “ca. 3 ×” and the solubility in water was 18-22 ppm. The tolerability [6] was “well tolerated” and the “binding to transferrin (Tf)” value [7] was “strongly”.
